Experimental data as given in ChEMBL document CHEMBL5257038, “Active Natural Product Scaffolds against Trypanosomatid Parasites: A Review” (J Nat Prod, 2018).
One block for each compound: values may come before it.

Legend:
Trypanosoma cruzi [1] = assay: Antitrypanosomal activity against epimastigote form of Trypanosoma cruzi assessed as reduction in parasite growth; type: functional, organism-based
THP-1 = assay: Cytotoxicity against human THP-1 cells; type: functional, cell-based
[2] = system: Trypanosoma brucei rhodesiense; assay: Antitrypanosomal activity against bloodstream form of Trypanosoma brucei rhodesiense assessed as parasite growth inhibition; type: functional, organism-based
[3] = Selectivity index, ratio of IC50 for cytotoxicity against rat L6 cells to IC50 for antitrypanosomal activity against bloodstream form of Trypanosoma brucei rhodesiense; type: toxicity, cell-based; details: read-out: Ratio IC50
Leishmania infantum = assay: Antileishmanial activity against amastigote stage of Leishmania infantum; type: functional, organism-based
[4] = system: Trypanosoma brucei brucei; assay: Antitrypanosomal activity against bloodstream form of Trypanosoma brucei brucei assessed as reduction in parasite growth; type: functional, organism-based
Trypanosoma cruzi [5] = assay: Antitrypanosomal activity against intracellular Trypanosoma cruzi amastigote assessed as reduction in parasite growth; type: functional, organism-based
Leishmania donovani [6] = assay: Antileishmanial activity against Leishmania donovani promastigotes assessed as parasite growth inhibition; type: functional, organism-based
Leishmania donovani [7] = assay: Antileishmanial activity against amastigote form of Leishmania donovani assessed as parasite growth inhibition; type: functional, organism-based
[8] = Selectivity index, ratio of IC50 for cytotoxicity against rat L6 cells to IC50 for antileishmanial activity against amastigote form of Leishmania donovani; type: toxicity, cell-based; details: read-out: Ratio IC50

EC50 (Trypanosoma cruzi [1]): 0.92 µM
SMILES: CCCCCCCCCCCCCCCCOP(=O)([O-])OCC[N+](C)(C)C [MILTEFOSINE]
EC50 (THP-1): 4.67 µM

SMILES: N=C(N)c1ccc(OCCCCCOc2ccc(C(=N)N)cc2)cc1 [PENTAMIDINE]
EC50 (THP-1): 15.8 µM

SMILES: CC/C=C(C)\C=C\CCC[C@]1(OC)C[C@H](C)[C@H](CC(=O)OC)OO1
EC50 [2]: 0.032 µM
selectivity ratio [3]: > 350

EC50 (Leishmania infantum): 2 µM
EC50 [4]: 0.5 µM
EC50 (Trypanosoma cruzi [5]): < 0.25 µM
SMILES: CO/N=c1\[n-]cnc2c1n(C/C=C(\C)CCC=C(C)C)c[n+]2C

SMILES: COc1cccc2oc3c(Cl)c(O)c([C@H]4CCC[C@@H](C)O4)c(O)c3c(=O)c12 [CHAETOXANTHONE C]
EC50 [2]: 109 µM
EC50 (Trypanosoma cruzi [5]): 3.8 µM
EC50 (Leishmania donovani [6]): 7.9 µM

EC50 [2]: 21.6 µM
SMILES: COc1ccc2c(=O)cc(-c3ccccc3)oc2c1OC
selectivity ratio [3]: 5

EC50 (Trypanosoma cruzi [1]): 1.5 µM
SMILES: CC1CS(=O)(=O)CCN1/N=C/c1ccc([N+](=O)[O-])o1 (stereo not drawn) [NIFURTIMOX]
EC50 (Leishmania donovani [6]): 0.024 µM
EC50 (Leishmania donovani [7]): 0.004 µM

EC50 [4]: 21.4 µM
SMILES: O=c1c(O)c(-c2cc(O)c(O)c(OS(=O)(=O)O)c2)oc2cc(O)cc(O)c12

SMILES: COc1cc(-c2oc3cc(O)cc(O)c3c(=O)c2O)ccc1O [ISORHAMNETIN]
selectivity ratio [8]: 10.7
selectivity ratio [3]: 4.6

EC50 [4]: 13.1 µM
SMILES: O=c1c(O[C@@H]2O[C@H](CO)[C@@H](O)[C@H](O)[C@H]2O)c(-c2cc(O)c(O)c(O)c2)oc2cc(O)cc(O)c12

EC50 [2]: 12.1 µM
SMILES: COc1ccc(-c2oc3cc(OC)c(OC)c(O)c3c(=O)c2OC)cc1OC [ARTEMETIN]
selectivity ratio [3]: 9.8

SMILES: CC/C=C(C)/C=C/CCC[C@]1(OC)C[C@H](C)[C@H](CC(=O)O)OO1
EC50 [2]: 5.7 µM
selectivity ratio [3]: 3.8

EC50 [2]: 0.27 µM
SMILES: O=c1cc(-c2ccccc2)oc2c(O)c(O)ccc12 [7,8-DIHYDROXYFLAVONE]
selectivity ratio [3]: 116

EC50 [2]: 20.7 µM
SMILES: C/C=C(\C)C(=O)O[C@@H]1CC(C(=O)O)=C2C(=O)C=C(C)[C@@H]2[C@H]2OC(=O)[C@H](C)[C@@H]21

EC50 [2]: 4.5 µM
EC50 (Trypanosoma cruzi [5]): 30.3 µM
SMILES: C/C=C(\C)C(=O)O[C@@H]1CC([C@@H](O)C2=CC3OC(=O)C4=C3[C@H]2[C@H]2OC(=O)[C@H](C)[C@@H]2[C@H](OC(=O)/C(C)=C/C)C4)=C2C(=O)C=C(C)[C@@H]2[C@H]2OC(=O)[C@H](C)[C@@H]21 (stereo partly drawn)
EC50 (Leishmania donovani [7]): 10.2 µM

SMILES: CO[C@@]1(CCCC2(O)C=C(C)C(C)O2)C[C@H](C)[C@H](CC(=O)O)OO1 (stereo partly drawn)
EC50 [2]: 0.17 µM
EC50 [4]: 0.049 µM

SMILES: CC/C=C(C)/C=C/CCC[C@]1(OC)C[C@H](C)[C@H](CC(=O)OC)OO1 [MANADOPEROXIDE B]
EC50 [2]: 0.0088 µM

SMILES: C=C1CC[C@H]2C(C)(C)CCC[C@]2(C)[C@H]1CC/C(C)=C/Cn1c[n+](C)c2ncnc(N)c21
EC50 (Leishmania infantum): 3 µM
EC50 [4]: 1.8 µM
EC50 (Trypanosoma cruzi [5]): 9 µM

EC50 [4]: 20.1 µM
SMILES: C[C@@H]1O[C@@H](Oc2cc(O)c3c(=O)c(O)c(-c4ccc(O)c(O)c4)oc3c2)[C@H](O)[C@H](O)[C@H]1O

EC50 [4]: 15.5 µM
SMILES: Cc1cc(O[C@@H]2O[C@@H](C)[C@H](O)[C@@H](O)[C@H]2O)c2c(c1)cc(O[C@@H]1O[C@@H](C)[C@H](O)[C@@H](O)C1O)c1c(=O)c3c(O)cccc3oc12 (stereo partly drawn)

EC50 (Trypanosoma cruzi [1]): 9.3 µM
SMILES: O=C(Cn1ccnc1[N+](=O)[O-])NCc1ccccc1 [BENZNIDAZOLE]

SMILES: CCCCCCC1CCCC(C2CCC([C@H]3CC[C@H]([C@H](O)CCCCCCCCCCCCC4=C[C@H](C)OC4=O)O3)O2)O1 (stereo partly drawn) [CHAMUVARININ]
EC50 [4]: 1.3 µM

SMILES: NC[C@@H]1O[C@H](O[C@H]2[C@@H](O)[C@H](O[C@@H]3[C@@H](O)[C@H](N)C[C@H](N)[C@H]3O[C@H]3O[C@H](CO)[C@@H](O)[C@H](O)[C@H]3N)O[C@@H]2CO)[C@H](N)[C@@H](O)[C@@H]1O [PAROMOMYCIN]
EC50 [2]: 22.7 µM
EC50 (Leishmania donovani [6]): 0.005 µM
EC50 (Leishmania donovani [7]): 0.007 µM
